Experimental findings from US9510592B2, “Pesticidal compositions and processes related thereto” (Dow AgroSciences LLC, priority 2012, dated 2016) are described below.

In data set [1] the test system is Beet Armyworm (Spodoptera exigua). Description: Bioassay on Beet Armyworm (BAW), 128-well diet tray assay. The format is in vivo. Conditions: Spodoptera exigua, 168 h, percent mortality of second instar larvae, 50 μg/cm^2 on artificial diet, five to seven days, 25° C., read-out: BAW Rating. An outline of the steps:
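Second-instar larvae (one to five per well) were placed on artificial diet surface-treated with 50 μg/cm^2 compound in acetone-water and held at 25 °C, 14:10 light-dark, for five to seven days. Percent mortality was averaged over eight wells.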

The subject of data set [2] is Corn Earworm (Helicoverpa zea). Briefly: Bioassay on Corn Earworm (CEW), 128-well diet tray assay. Format: in vivo. Particulars: Helicoverpa zea, 168 h; percent mortality of second instar larvae, 50 μg/cm^2 on artificial diet, five to seven days, 25° C.; Table 3; read-out: CEW Rating. The method, then:
(§1) Certain molecules disclosed in this document were tested against BAW and CEW and CL using procedures described in the following examples. In the reporting of the results, the “BAW & CEW & CL Rating Table” was used (See Table Section).
Bioassays On CEW (Helicoverpa zea)
Bioassays on CEW were conducted using a 128-well diet tray assay. one to five second instar CEW larvae were placed in each well (3 mL) of the diet tray that had been previously filled with 1 mL of artificial diet to which 50 μg/cm^2 of the test compound (dissolved in 50 μL of 90:10 acetone-water mixture) had been applied (to each of eight wells) and then allowed to dry. Trays were covered with a clear self-adhesive cover, and held at 25° C., 14:10 light-dark for five to seven days. Percent mortality was recorded for the larvae in each well; activity in the eight wells was then averaged. The results are indicated in the table entitled “Table 3: Assay Results” (See Table Section).

In data set [3] the test system is Green Peach Aphid (Myzus persicae). Description: Bioassay on Green Peach Aphid (GPA), foliar spray on cabbage seedlings. Format: in vivo. Particulars: 72 h, corrected % control (Abbott), 200 ppm spray on cabbage seedlings, three days. The method, then: Certain molecules disclosed in this document were tested against GPA using procedures described in the following example. In the reporting of the results, the “GPA Rating Table” was used (See Table Section). Cabbage seedlings grown in 3-inch pots, with 2-3 small (3-5 cm) true leaves, were used as test substrate. The seedlings were infested with 20-50 GPA (wingless adult and nymph stages) one day prior to chemical application. Four pots with individual seedlings were used for each treatment. Test compounds (2 mg) were dissolved in 2 mL of acetone/MeOH (1:1) solvent, forming stock solutions of 1000 ppm test compound. The stock solutions were diluted 5× with 0.025% Tween 20 in water to obtain the solution at 200 ppm test compound. A hand-held aspirator-type sprayer was used for spraying a solution to both sides of […] leaves until runoff. Reference plants (solvent check) were sprayed with the diluent only containing 20% by volume of acetone/MeOH (1:1) solvent. Treated plants were held in a holding room for three days at approximately 25° C. and ambient relative humidity (RH) prior to grading. Evaluation was conducted by counting the number of live aphids per plant under a microscope. Percent Control was measured by using Abbott's correction formula (W. S. Abbott, “A Method of Computing the Effectiveness of an Insecticide” J. Econ. Entomol. 18 (1925), pp. 265-267) as follows. Corrected % Control=100*(X−Y)/X • where • X=No. of live aphids on solvent check plants and • Y=No. of live aphids on treated plants The results are indicated in the table entitled “Table 3: Assay Results” (See Table Section).

Data set [4] relates to Cabbage Looper (Trichoplusia ni). Briefly: Bioassay on Cabbage Looper (CL), 128-well diet tray assay. The format is in vivo. Particulars: percent mortality of second instar larvae, 50 μg/cm^2 on artificial diet, five to seven days, 25° C.; Table 3A. The method, then: as §1
Bioassays on CL (Trichoplusia ni)
Bioassays on CL were conducted using a 128-well diet tray assay. One to five second instar CL larvae were placed in each well (3 mL) of the diet tray that had been previously filled with 1 mL of artificial diet to which 50 μg/cm^2 of the test compound (dissolved in […] of 90:10 acetone-water mixture) had been applied (to each of eight wells) and then allowed to dry. Trays were covered with a clear self-adhesive cover, and held at 25° C., 14:10 light-dark for five to seven days. Percent mortality was recorded for the larvae in each well; activity in the eight wells was then averaged. The results are indicated in the table entitled “Table 3A: Assay Results” (See Table Section).

Read-outs that look alike come from different tables or passages of the source.

With `NC(=O)c1ccc(/C=C/C(c2cc(Cl)cc(Cl)c2)C(F)(F)F)cc1` (stereo not shown) [AC2], the melting point (in general, the temperature of the solid-liquid transition) was 110 to 112 °C.
As to `O=C(NCc1ccc(/C=C/C(c2cc(Cl)c(Cl)c(Cl)c2)C(F)(F)F)cc1)c1ccnc(Cl)c1` (stereo not shown) [CC13], the pest or weed control at 50 µg/cm2, 50 µg/cm2 in data set [1] (Table 3) lay in the range of 50 to 100%. Besides, in data set [2], the pest or weed control at 50 µg/cm2 lay within 50 to 100%. For the same molecule, the pest or weed control at 200 ppm in data set [3] (Table 3, read-out: GPA Rating) was in the range of 0 to 80%.
For `O=C(CC(F)(F)F)NCc1ccc(/C=C/C(c2cc(Cl)c(Cl)c(Cl)c2)C(F)(F)F)cc1Cl` (stereo not shown) [CC10], the pest or weed control at 50 µg/cm2, 50 µg/cm2 in data set [1] (Table 3) fell in the range of 50 to 100%. In addition, in data set [2], the pest or weed control at 50 µg/cm2 lay in the range of 50 to 100%. In data set [3] (Table 3, read-out: GPA Rating), the pest or weed control at 200 ppm was in the range of 0 to 80%.
Consider `CCC(=O)NNC(=O)c1ccc(/C=C/C(c2cc(Cl)c(Cl)c(Cl)c2)C(F)(F)F)cc1Br` (stereo not shown) [Compound F8], for which, in data set [1] (Table 3A), the pest or weed control at 50 µg/cm2, 50 µg/cm2 was 50 to 100%. Besides, in data set [4], the “CL Rating” value is on record as “A (50-100)”.
On to `O=C(CC(F)(F)F)NNC(=O)c1ccc(/C=C/C(c2cc(Cl)c(Cl)c(Cl)c2)C(F)(F)F)cc1Br` (stereo not shown) [Compound F1], for which, in data set [1] (Table 3A), the pest or weed control at 50 µg/cm2, 50 µg/cm2 is 50 to 100%. In addition, the “CL Rating” value in data set [4] is reported as “A (50-100)”.
As for `O=C(CNC(=O)c1ccc(/C=C/C(c2cc(Cl)cc(Cl)c2)C(F)(F)F)cc1Cl)NCC(F)(F)F` (stereo not shown) [AC57], in data set [1] (Table 3), the pest or weed control at 50 µg/cm2, 50 µg/cm2 was in the range of 50 to 100%. Further, the pest or weed control at 50 µg/cm2 in data set [2] fell in the range of 50 to 100%. Moreover, the pest or weed control at 200 ppm in data set [3] (Table 3, read-out: GPA Rating) fell in the range of 0 to 80%.
Consider `O=C(CC(F)(F)F)NC1CCc2cc(/C=C/C(c3cc(Cl)c(Cl)c(Cl)c3)C(F)(F)F)ccc21` (stereo not shown) [BC4, (E)-3,3,3-Trifluoro-N-(5-(4,4,4-trifluoro-3-(3,4,5-trichlorophenyl)but-1-enyl)-2,3-dihydro-1H-inden-1-yl)propanamide], for which the pest or weed control at 50 µg/cm2, 50 µg/cm2 in data set [1] (Table 3) lay in the range of 50 to 100%. Moreover, the pest or weed control at 50 µg/cm2 in data set [2] fell in the range of 50 to 100%. Besides, in data set [3] (Table 3, read-out: GPA Rating), the pest or weed control at 200 ppm is 0 to 80%.
On to `Cc1cc(/C=C/C(c2cc(Cl)cc(Cl)c2)C(F)(F)F)ccc1C(=O)N[C@H]1C[S@@+]([O-])C1` (stereo partly shown) [AC82], for which the pest or weed control at 50 µg/cm2, 50 µg/cm2 in data set [1] (Table 3) was 50 to 100%. Further, the pest or weed control at 50 µg/cm2 in data set [2] was 50 to 100%. Also, in data set [3] (Table 3, read-out: GPA Rating), the pest or weed control at 200 ppm was 0 to 80%.
On to `O=C(NCCNC(=O)C(F)(F)F)c1ccc(/C=C/C(c2cc(Cl)c(Cl)c(Cl)c2)C(F)(F)F)cc1Br` (stereo not shown) [Compound F33], for which the pest or weed control at 50 µg/cm2, 50 µg/cm2 in data set [1] (Table 3A) lay in the range of 50 to 100%. In addition, in data set [4], the “CL Rating” value was “A (50-100)”. The pest or weed control at 200 ppm in data set [3] (Table 3A, read-out: GPA Rating) is 0 to 80%.
In the case of `Cc1cc(/C=C/C(c2cc(Cl)cc(Cl)c2)C(F)(F)F)ccc1C(=O)NC(C)c1ccc(Cl)nc1` (stereo not shown) [AC44], in data set [1] (Table 3), the pest or weed control at 50 µg/cm2, 50 µg/cm2 lay within 50 to 100%. The pest or weed control at 50 µg/cm2 in data set [2] fell in the range of 50 to 100%. Besides, the pest or weed control at 200 ppm in data set [3] (Table 3, read-out: GPA Rating) was 0 to 80%.
On to `N#Cc1cc(/C=C/C(c2cc(Cl)c(Cl)c(Cl)c2)C(F)(F)F)ccc1-n1cncn1` (stereo not shown) [DC31], for which the pest or weed control at 50 µg/cm2, 50 µg/cm2 in data set [1] (Table 3) lay in the range of 50 to 100%. The pest or weed control at 50 µg/cm2 in data set [2] fell in the range of 50 to 100%. The pest or weed control at 200 ppm in data set [3] (Table 3, read-out: GPA Rating) is 0 to 80%.
As for `O=C(CC(F)(F)F)NCc1ccc(/C=C/C(c2cc(Cl)c(F)c(Cl)c2)C(F)(F)F)cc1` (stereo not shown) [CC16], in data set [1] (Table 3), the pest or weed control at 50 µg/cm2, 50 µg/cm2 was in the range of 50 to 100%. For the same molecule, the pest or weed control at 50 µg/cm2 in data set [2] fell in the range of 50 to 100%. Besides, the pest or weed control at 200 ppm in data set [3] (Table 3, read-out: GPA Rating) lay within 0 to 80%.
For the molecule `N#Cc1cc(/C=C/C(c2ccc(Cl)c(Cl)c2)C(F)(F)F)ccc1-n1cncn1` (stereo not shown) [DC28], in data set [1] (Table 3), the pest or weed control at 50 µg/cm2, 50 µg/cm2 is 50 to 100%. For the same molecule, the pest or weed control at 50 µg/cm2 in data set [2] was 50 to 100%. The pest or weed control at 200 ppm in data set [3] (Table 3, read-out: GPA Rating) lay within 0 to 80%.
For the molecule `CCC(=O)N(C)NC(=O)c1ccc(/C=C/C(c2cc(Cl)c(Cl)c(Cl)c2)C(F)(F)F)cc1Br` (stereo not shown) [Compound F11, (E)-2-Bromo-N′-methyl-N′-propionyl-4-(4,4,4-trifluoro-3-(3,4,5-trichlorophenyl)but-1-en-1-yl)benzohydrazide], the pest or weed control at 50 µg/cm2, 50 µg/cm2 in data set [1] (Table 3A) lay within 50 to 100%. The “CL Rating” value in data set [4] is reported as “A (50-100)”.
For `Cc1cc(/C=C/C(c2cc(Cl)cc(Cl)c2)C(F)(F)F)cnc1C(=O)NCc1ccc(Cl)nc1` (stereo not shown) [AC60], the pest or weed control at 50 µg/cm2, 50 µg/cm2 in data set [1] (Table 3) lay in the range of 50 to 100%. The pest or weed control at 50 µg/cm2 in data set [2] was 50 to 100%. In data set [3] (Table 3, read-out: GPA Rating), the pest or weed control at 200 ppm is 0 to 80%.
